Tested on: drug-resistant Mycobacterium tuberculosis
Settings: peptide 10 micrograms per ml, seven days

NC(=O)[C@@H]1CCCN1C(=O)[C@H](Cc1cnc[nH]1)NC(=O)[C@@H]1CCC(=O)N1 [TRH, Pyr-His-Pro-NH2]
% inhibition: 0.0%
